{"source": "patent US20070265231A1", "about": "“Hydrazide Compounds for Combating Animal Pests” (priority 2005, published 2007)"}
{"tested_on": "Orchid thrips (dichromothrips corbetti)", "assay": "Orchid thrips mortality test, floral-immersion technique", "format": "in vivo", "details": "96 h, orchid petals dipped, adult thrips, after 4 days, read-out: mortality in comparison with untreated controls", "method": "I.3 Orchid thrips (dichromothrips corbetti)\nDichromothrips corbetti adults used for bioassay were obtained from a colony maintained continuously under laboratory conditions. For testing purposes, the test compound was diluted to a concentration of 500 ppm (wt compound: vol diluent) in a 1:1 mixture of acetone:water, plus 0.01% Kinetic® surfactant.\nThrips potency of each compound was evaluated by using a floral-immersion technique. Plastic petri dishes were used as test arenas. All petals of individual, intact orchid flowers were dipped into treatment solution for approximately 3 seconds and allowed to dry for 2 hours. Treated flowers were placed into individual petri dishes along with 10-15 adult thrips. The petri dishes were then covered with lids. All test arenas were held under continuous light and a temperature of about 28° C. for duration of the assay. After 4 days, the numbers of live thrips were counted on each flower, and along inner walls of each petri dish. The level of thrips mortality was extrapolated from pre-treatment thrips numbers.", "units": {"mortality at 300 ppm": "%"}}
{"smiles": "CC(=Cc1cccc(F)c1)CNNC(=O)c1ccccc1F", "note": "[A1, 2-Fluorobenzoic acid N′-[3-(3-fluorophenyl)-2-methyl-allyl]hydrazide]", "mortality at 300 ppm": "> 75"}
{"tested_on": "Bean Aphid (Aphis fabae)", "assay": "Bean aphid mortality test, nasturtium plants dipped in test solution", "format": "in vivo", "details": "300 ppm, after 3 days", "from_the_text": "I.4 Bean Aphid (Aphis fabae)\nNasturtium plants grown in Metro mix in the 1st leaf-pair stage (variety ‘Mixed Jewel’) were infested with approximately 2-30 laboratory-reared aphids by placing infested cut plants on top of the test plants. The cut plants were removed after 24 hr. Each plant was dipped into the test solution to provide complete coverage of the foliage, stem, protruding seed surface and surrounding cube surface and allowed to dry in the fume hood. The treated plants were kept at about 25° C. with continuous fluorescent light. Aphid mortality is determined after 3 days.", "units": {"mortality in comparison with untreated controls": "%"}}
{"smiles": "CC(=Cc1cccc(F)c1)CNN(C)C(=O)c1ccccc1", "note": "[A93]", "mortality in comparison with untreated controls": 75}
{"smiles": "CC(=Cc1ccccc1)CNNC(=O)c1ccc(F)cc1F", "note": "[A141]", "mortality in comparison with untreated controls": 75}
{"smiles": "CC(=Cc1ccccc1F)CNNC(=O)c1ccc(F)cc1F", "note": "[A305]", "mortality in comparison with untreated controls": 75}
{"smiles": "O=C(NNCC=Cc1ccc(Cl)s1)c1ccccn1", "note": "[E1]", "mortality in comparison with untreated controls": 75}
{"smiles": "CC(C)C(=Cc1ccco1)CNNC(=O)c1ccccn1", "note": "[E3]", "mortality in comparison with untreated controls": 75}
